From US11136314B2, “Forms of afatinib dimaleate” (Johnson Matthey Public Limited Company, priority 2017, dated 2021)

Test: Solid form stability under exposure to water / humidity
Format: physicochemical

Row | stable under exposure to water vapor under ambient conditions (about 25° C., >90% RH) | stable at about 40° C., 75% RH (about 40° C., 75% RH) | stability under exposure to water (exposure to water) | completely converts to a hydrated species (40° C., 75% RH) [days] | SMILES | stability compared with afatinib dimaleate Form A (40° C., 75% RH)
1 | about 3 days | over 19 days | stable under exposure to water | – | CN(C)C/C=C/C(=O)Nc1cc2c(Nc3ccc(F)c(Cl)c3)ncnc2cc1O[C@H]1CCOC1.O=C(O)/C=C\C(=O)O.O=C(O)/C=C\C(=O)O [Form Z, afatinib dimaleate] | more stable than afatinib dimaleate Form A
2 | – | – | – | ≤ 11 | CN(C)C/C=C/C(=O)Nc1cc2c(Nc3ccc(F)c(Cl)c3)ncnc2cc1O[C@H]1CCOC1.O=C(O)/C=C\C(=O)O.O=C(O)/C=C\C(=O)O [Afatinib dimaleate Form A, afatinib dimaleate] | –
